{"source": "patent US7301070B2", "about": "“Plant fatty acid synthases and use in improved methods for production of medium-chain fatty acids” (Calgene LLC, priority 1997, dated 2007)", "key": {"[1]": {"tested_on": "fatty acid synthesis in Brassica seed extracts", "assay": "In vitro fatty acid synthesis assay in seed extracts preincubated with cerulenin", "type": "biochemical", "procedure": "(§1) Seed extracts were prepared from developing seeds of nontransgenic controls or transgenic Brassica expressing chKAS A-2-7 as described in Slabaugh et al. (Plant Journal, 1998 in press) and Leonard et al. (Plant Journal, 1998, in press). In vitro fatty acid synthesis assays were performed as described by Post-Beittenmiller (J. Biol. Chem. (1991), 266:1858-1865). Extracts were concentrated by ammonium sulfate precipitation and desalting using P-6 columns (Bio-Rad, Hercules, Calif.). Reactions (65 μl) contained 0.1M Tris/HCl (pH 8.0), 1 mM dithiothreitol, […] recombinant spinach ACP1, 1 mM NADH, 2 mM NADPH, 50 μM malonyl-CoA, 10 μM [1-^14C]acetyl-CoA (50 mCi/mmol), 1 mg/ml BSA, and 0.25 mg/ml seed protein. Selected seed extracts were preincubated with cerulenin at 23° C. for 10 min. Reaction products were separated on an 18% acrlamide gel containing 2.25M urea, electroblotted onto to nitrocellulose and quntitated by phosporimaging using Image QuaNT software (Molecular Dynamics, Sunnyvale, Calif.). Authentic acyl-ACPs were run in parallel, immunoblotted and finally detected by anti-ACP serum to confirm fatty acid chain lengths."}, "[2]": {"tested_on": "Synthase III", "details": "cited from earlier work"}, "[3]": {"tested_on": "Synthase II (KAS II)", "details": "higher concentrations than KAS I; cited from earlier work"}, "[4]": {"tested_on": "Ch KAS A-2-7", "assay": "In vitro fatty acid synthesis assay, seed extracts of transgenic Brassica expressing chKAS A-2-7", "type": "biochemical, Cuphea hookeriana", "details": "conclusion from FIG. 22 data", "procedure": "as §1"}, "[5]": {"tested_on": "Synthase I (KAS I)", "details": "cited from earlier work"}}, "data": [{"smiles": "C/C=C/C/C=C/CCC(=O)[C@H]1O[C@H]1C(N)=O", "note": "[cerulenin]", "values": [{"measurement": "inhibition of extension of the spinach-ACP by cerulenin", "setting": "[1]; seed extracts from transgenic lines compared with nontransgenic control Brassica", "value": "much less inhibited"}, {"measurement": "synthesis of longer chain fatty acids after pretreatment of extracts with cerulenin", "setting": "[1]; transgenic (5401-9) and nontransgenic control seed extracts, preincubated at 23° C. for 10 min", "value": "markedly reduced"}, {"measurement": "sensitivity of synthase III to cerulenin inhibition", "setting": "[2]", "value": "insensitive to inhibition by cerulenin"}, {"measurement": "concentration of cerulenin at which KAS II is inhibited", "setting": "[3]", "value": 50, "unit": "µM"}, {"measurement": "sensitivity of chKAS A-2-7 to cerulenin", "setting": "[4]", "value": "cerulenin-resistant"}, {"measurement": "concentration of cerulenin at which KAS I is sensitive to inhibition", "setting": "[5]", "value": 1, "unit": "µM"}]}]}
